Consider 1 molecule from patent US20080319375A1, “Materials, Methods, and Systems for Cavitation-mediated Ultrasonic Drug Delivery in vivo” (Biovaluation & Analysis, Inc., priority 2007, published 2008).

This series can be described thus: Micropipette aspiration of polymersome membranes. Type of series: physicochemical. From the text:
Thermal undulations of the quasi-spherical polymersome membranes provide an immediate indication of membrane softness. […] The micromanipulations are done with micropipette systems, as described above, and analogous to those described by Longo et al. (1997) and by Discher et al. (1994).
Analogous to a lipid bilayer, at low but increasing aspiration pressures, the thermally undulating polymersome membrane is progressively smoothed, increasing the projected area logarithmically with tension, t. From the slope of this increase (i.e., in tension units of mN/m) versus the fractional change, α, in vesicle area, the bending modulus, Kb, is calculated (see, e.g., Evans et al., 1990) with the following equation:
Kb≅kBT ln(t)/(8απ)+constant Equation 3 […]
Despite the comparative toughness of the polymersome membrane, a core “cavitation pressure,” Pc, may be readily estimated as pc=tc/d (5) yielding a value of pc=−25 atm. […] Bulk liquids such as water and light organics, are commonly reported to have measured tensile strengths of such a magnitude as may be generically estimated from a ratio of nominal interfacial tensions to molecular dimensions (i.e., ˜γ/d).

Turning to `CCCCCCCC/C=C\CCCCCCCC(=O)O[C@H](COC(=O)CCCCCCCCCCCCCCCCC)COP(=O)([O-])OCC[N+](C)(C)C` [SOPC, 1-stearoyl-2-oleoyl phosphatidylcholine], the “area expansion modulus, Ka” value is on record as about 180 mN/m.
